Source: ChEMBL document CHEMBL1201862, “PubChem BioAssay data set” (2004)
The source made the active and inactive calls.

Assays:
[1] = molecular target: T1, Heat shock factor protein 1 (Mus musculus, UniProt P38532); assay: inhibition of MG132-induced HSE-luciferase signal, confirmation, cell-based, NIH3T3, luminescence, dose retest (AID 2382); assay type: functional;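 also: NIH3T3 fibroblasts with HSF1-driven luciferase reporter stressed by proteasome inhibitor MG132; luminescence from HSF1-driven luciferase expression after 8 hours of MG132 stress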
T1 sequence (P38532 whole entry): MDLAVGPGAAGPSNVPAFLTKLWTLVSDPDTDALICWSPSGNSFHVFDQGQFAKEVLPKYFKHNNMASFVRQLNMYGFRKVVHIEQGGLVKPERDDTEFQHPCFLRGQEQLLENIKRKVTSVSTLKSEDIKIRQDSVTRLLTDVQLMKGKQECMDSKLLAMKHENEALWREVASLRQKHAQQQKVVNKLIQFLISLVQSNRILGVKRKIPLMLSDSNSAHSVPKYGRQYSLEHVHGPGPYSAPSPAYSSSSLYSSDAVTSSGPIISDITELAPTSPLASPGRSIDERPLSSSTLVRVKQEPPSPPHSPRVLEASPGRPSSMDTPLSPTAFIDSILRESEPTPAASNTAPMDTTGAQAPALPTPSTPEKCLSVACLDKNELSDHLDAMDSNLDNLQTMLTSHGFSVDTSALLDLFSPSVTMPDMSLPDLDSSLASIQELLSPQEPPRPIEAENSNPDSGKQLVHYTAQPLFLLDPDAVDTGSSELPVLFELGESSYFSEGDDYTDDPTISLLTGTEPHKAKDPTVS

[2] = Luminescence Cell-Based Dose Response HTS to Identify Activators of Luciferase Translation or Activity in H4 […] Cells. [Related pubchem assays: 1829 (Project Summary), 1814 (Primary HTS)]; assay type: functional
H4 = assay: Luminescence Cell-Based Dose Response HTS to Identify Activators of 5'UTR Stem-Loop Driven Prion Protein mRNA Translation in H4 Neuroglioblastoma Cells. [Related pubchem assays: 1829 (Project Summary), 1814 (Primary HTS)]; assay type: functional; settings: Homo sapiens
[3] = Luminescence Cell-Based Dose Confirmation HTS to Identify Activators of 5'UTR Stem-Loop Driven Alpha-Synuclein mRNA Translation in H4 Neuroglioblastoma Cells. [Related pubchem assays: 1829 (Project Summary), 1814 (Primary HTS)]; assay type: functional
Cytochrome P450 2C19 = Cytochrome P450 2C19 (Homo sapiens, UniProt P33261); assay: Cytochrome panel assay with activity outcomes. Panel member name: p450-cyp2c19 Compounds with AC50 equal or less than 10 uM are considered active; assay type: functional; settings: read-out: AC50
[4] = molecular target: Luciferin 4-monooxygenase (Photinus pyralis, UniProt P08659); assay: firefly luciferase enzyme inhibitors, dose response, biochemical, luminescence (AID 1891)
[5] = Luminescence Cell-Based Dose Confirmation HTS to Identify Inhibitors of Platelet Dense Granule Release. [Related pubchem assays: 1663 (Primary HTS), 1678 (Summary of Project)]; assay type: functional
[6] = Shn3 3'UTR reporter inhibitors, dose response, cell-based, Clone20 osteoblasts, firefly luciferase, cherry-picked (AID 624132); assay type: functional;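 also: firefly luciferase luminescence from reporter carrying the Shn3 3'UTR in osteoblasts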
[7] = control 3'UTR Renilla luciferase suppression, dose response, counter-screen for Shn3 inhibitor project, cell-based, Clone20-Shn3RL, cherry-picked (AID 624133); assay type: functional
cells [8] = assay type: functional, cell-based
cells [9] = assay type: functional, cell-based; remark: listed apart in the source
[10] = inhibitors of firefly luciferase expression or activity, dose response, H4 neuroglioma cells, luminescence (AID 1990); assay type: functional, cell-based
[11] = inhibitors of SNCA 5'UTR-driven reporter translation, confirmation, H4 neuroglioma cells, luminescence (AID 1988); assay type: functional, cell-based
[12] = Luminescence Cell-Based Dose Response HTS to Identify Inhibitors of 5'UTR Stem-Loop Driven Prion Protein mRNA Translation in H4 Neuroglioblastoma Cells. [Related pubchem assays: 1827 (Project Summary), 1813 (Primary HTS)]; assay type: functional
[13] = growth suppression of beta-catenin-knockout colon cells, dose response, cell-based, HCT116, human colon tumor (AID 1045); assay type: functional;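 also: HCT116 colon tumor cells with beta catenin knocked out; cells exposed to compound for 60 hours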
Protein RecA = molecular target: T2, Protein RecA (Mycobacterium tuberculosis, UniProt P9WHJ3); assay: Fluorescence Cell-Free Homogeneous Dose Retest to Identify Inhibitors of RecA-Intein Splicing Activity. [Related pubchem assays (depositor defined):AID2097, AID2223, AID489010, AID492950]; assay type: functional
T2 sequence (P9WHJ3 whole entry): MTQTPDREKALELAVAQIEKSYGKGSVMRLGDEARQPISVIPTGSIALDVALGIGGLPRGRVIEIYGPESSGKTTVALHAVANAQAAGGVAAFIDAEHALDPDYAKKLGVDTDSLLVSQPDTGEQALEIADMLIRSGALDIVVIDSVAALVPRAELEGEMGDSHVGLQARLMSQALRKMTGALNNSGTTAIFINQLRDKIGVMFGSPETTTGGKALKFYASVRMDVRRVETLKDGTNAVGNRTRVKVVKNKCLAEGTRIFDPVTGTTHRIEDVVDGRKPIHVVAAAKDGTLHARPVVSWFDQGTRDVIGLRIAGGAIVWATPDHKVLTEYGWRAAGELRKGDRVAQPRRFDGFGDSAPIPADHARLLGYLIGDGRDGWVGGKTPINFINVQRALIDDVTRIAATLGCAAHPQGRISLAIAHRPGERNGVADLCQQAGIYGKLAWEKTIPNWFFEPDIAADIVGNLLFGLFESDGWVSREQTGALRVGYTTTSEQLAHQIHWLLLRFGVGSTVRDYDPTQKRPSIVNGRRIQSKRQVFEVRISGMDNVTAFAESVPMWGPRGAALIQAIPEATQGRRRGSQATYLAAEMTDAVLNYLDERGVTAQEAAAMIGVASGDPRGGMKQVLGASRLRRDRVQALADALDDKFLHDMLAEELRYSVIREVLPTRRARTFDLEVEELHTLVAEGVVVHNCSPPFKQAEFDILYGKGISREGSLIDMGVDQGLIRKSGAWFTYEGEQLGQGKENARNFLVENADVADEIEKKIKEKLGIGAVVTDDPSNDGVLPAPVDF

[14] = molecular target: T3, Replicative DNA helicase DnaB (Mycobacterium tuberculosis, UniProt P9WMR3); assay: DnaB intein splicing inhibitors, dose response, biochemical, cell-free fluorescence (AID 449749); assay type: functional
T3 sequence (P9WMR3 whole entry): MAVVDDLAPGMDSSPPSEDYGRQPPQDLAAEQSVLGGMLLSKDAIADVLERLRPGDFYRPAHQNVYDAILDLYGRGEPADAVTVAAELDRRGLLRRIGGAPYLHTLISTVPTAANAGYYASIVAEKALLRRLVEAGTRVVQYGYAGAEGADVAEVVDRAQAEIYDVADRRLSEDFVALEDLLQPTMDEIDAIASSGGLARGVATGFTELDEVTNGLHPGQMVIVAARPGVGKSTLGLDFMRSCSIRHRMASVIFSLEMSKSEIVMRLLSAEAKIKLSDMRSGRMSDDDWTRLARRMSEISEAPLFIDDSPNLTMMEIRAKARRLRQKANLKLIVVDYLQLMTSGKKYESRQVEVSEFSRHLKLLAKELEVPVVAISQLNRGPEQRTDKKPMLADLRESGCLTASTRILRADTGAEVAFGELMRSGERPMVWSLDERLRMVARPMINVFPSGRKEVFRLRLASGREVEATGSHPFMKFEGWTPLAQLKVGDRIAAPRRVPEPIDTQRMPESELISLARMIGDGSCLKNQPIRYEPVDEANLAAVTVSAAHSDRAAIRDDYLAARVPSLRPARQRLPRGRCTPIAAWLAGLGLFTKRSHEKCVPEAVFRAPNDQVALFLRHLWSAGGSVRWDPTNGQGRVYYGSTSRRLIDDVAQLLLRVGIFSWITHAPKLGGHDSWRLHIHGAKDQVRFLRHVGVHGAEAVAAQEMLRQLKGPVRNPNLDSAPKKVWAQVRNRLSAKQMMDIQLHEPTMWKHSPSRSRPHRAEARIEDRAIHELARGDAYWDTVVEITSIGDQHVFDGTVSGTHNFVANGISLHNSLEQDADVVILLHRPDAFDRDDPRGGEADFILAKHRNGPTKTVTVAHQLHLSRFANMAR

[15] = growth suppression of PTEN-null colon cells, dose response, cell-based, HCT116 PTEN knockout (AID 1047); assay type: functional;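 also: HCT116 colon tumor cells with PTEN knocked out; cells exposed to compound for 60 hours before readout; potency for loss of cell viability measured by luminescence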

Chain of Luciferin 4-monooxygenase (P08659 whole entry): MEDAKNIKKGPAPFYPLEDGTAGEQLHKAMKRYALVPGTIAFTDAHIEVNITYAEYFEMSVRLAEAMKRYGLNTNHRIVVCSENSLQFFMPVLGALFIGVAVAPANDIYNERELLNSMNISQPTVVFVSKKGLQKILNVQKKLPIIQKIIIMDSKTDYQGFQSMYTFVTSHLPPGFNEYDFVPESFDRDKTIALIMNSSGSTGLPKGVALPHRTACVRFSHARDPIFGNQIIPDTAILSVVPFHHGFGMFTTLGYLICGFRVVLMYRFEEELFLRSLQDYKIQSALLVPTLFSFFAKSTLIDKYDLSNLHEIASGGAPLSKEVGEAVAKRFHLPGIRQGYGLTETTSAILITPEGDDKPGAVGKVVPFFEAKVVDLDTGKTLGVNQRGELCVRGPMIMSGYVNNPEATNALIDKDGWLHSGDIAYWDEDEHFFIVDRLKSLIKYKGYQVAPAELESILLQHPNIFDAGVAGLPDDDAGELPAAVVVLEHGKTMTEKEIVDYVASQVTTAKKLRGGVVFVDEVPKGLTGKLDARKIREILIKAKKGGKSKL
Chain of Cytochrome P450 2C19 (P33261 whole entry): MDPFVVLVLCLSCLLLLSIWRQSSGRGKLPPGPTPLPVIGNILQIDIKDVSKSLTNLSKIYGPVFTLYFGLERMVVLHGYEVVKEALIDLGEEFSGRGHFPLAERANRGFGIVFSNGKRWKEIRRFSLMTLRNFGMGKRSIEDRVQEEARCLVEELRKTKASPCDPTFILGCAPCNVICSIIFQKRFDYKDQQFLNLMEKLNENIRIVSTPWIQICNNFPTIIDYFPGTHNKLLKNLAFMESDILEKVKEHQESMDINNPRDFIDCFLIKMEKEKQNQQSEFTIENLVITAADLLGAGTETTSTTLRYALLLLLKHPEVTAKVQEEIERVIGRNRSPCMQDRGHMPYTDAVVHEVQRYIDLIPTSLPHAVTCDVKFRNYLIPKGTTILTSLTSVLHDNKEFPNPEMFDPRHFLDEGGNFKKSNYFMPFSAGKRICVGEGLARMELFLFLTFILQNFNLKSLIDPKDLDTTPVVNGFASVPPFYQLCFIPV

S=C(Nc1ccc(Nc2ccccc2)cc1)NN1CCOCC1
EC50 [1]: > 195 µM (not active) | EC50 [2]: 56.1 µM (active) | EC50 (H4): > 120 µM (not active) | EC50 [3]: > 120 µM (not active)

O=Cc1c(-c2ccc(Cl)cc2)oc2ccc(O)cc12
EC50 [1]: 18 µM (active)

CCn1nnnc1SCC(=O)NC1CCCC1
AC50 (Cytochrome P450 2C19): 35.5 µM (inconclusive) | EC50 [4]: > 112 µM (not active) | EC50 [5]: > 112 µM (not active)

COc1ccc(CCN2CC(C(=O)NCCc3ccc(C(F)(F)F)cc3)CCC2=O)cc1 (stereo not drawn)
EC50 [4]: > 112 µM (not active) | EC50 [5]: > 112 µM (not active)

C[C@H]1COC(=O)[C@H](NC(=O)OCC2c3ccccc3-c3ccccc32)C/C=C\C[C@H](CC(=O)N(CCO)Cc2ccccc2)C(=O)N1
AC50 [6]: 6.08 µM (active) | AC50 [7]: 5.76 µM (active)

Cc1ccc(-c2cnn(-c3ccccc3)c2N)cc1
EC50 [4]: 1.92 µM (active) | EC50 [5]: 2.57 µM (active)

COCCn1c(-c2ccc(OC)cc2)cnc1SCC(=O)Nc1ccc(OC)cc1OC
EC50 (cells [8]): > 350 µM (not active) | EC50 (cells [9]): > 350 µM (not active)

CCCN(Cc1ccccc1)C(=S)NC(=O)c1ccccc1[N+](=O)[O-]
EC50 [1]: > 195 µM (not active)

CCOc1ccc(C2C(C(=O)NC)=C(C)Nc3nc4ccccc4n32)cc1OC (stereo not drawn)
EC50 [4]: > 112 µM (not active) | EC50 [5]: > 112 µM (not active)

O=C(CSc1nnc(-c2ccco2)n1Cc1ccco1)NCc1ccccc1
EC50 (cells [8]): > 350 µM (not active) | EC50 (cells [9]): > 350 µM (not active)

O=C(Nc1ccccn1)c1c(O)c2cccc3c2n(c1=O)CCC3
EC50 [4]: > 112 µM (not active) | EC50 [5]: > 112 µM (not active)

CC(=O)N1CCC(=NNc2nc3ccccc3[nH]2)CC1
EC50 (cells [8]): 32.3 µM (active) | EC50 (cells [9]): > 350 µM (not active)

Cc1ccc(/C(O)=C/C=N/c2ccccn2)cc1
EC50 [10]: 3.18 µM (active) | EC50 [11]: 0.188 µM (active) | EC50 [1]: 4.24 µM (active) | EC50 [4]: 1.64 µM (active) | EC50 [5]: 5.11 µM (active) | EC50 [12]: 1.4 µM (active)

O=C(CSc1ccccc1)Nc1cccc(NC(=O)c2ccco2)c1
EC50 [1]: > 195 µM (not active)

CC1=C(C)/C(=N/OC(=O)c2cccc([N+](=O)[O-])c2)C=CC1=O
EC50 [13]: 9.24 µM (active) | EC50 (Protein RecA): 0.418 µM (active) | AC50 [14]: > 380 µM (inactive) | EC50 [15]: 9.44 µM (active)

CC1C/C(=N/Nc2nc3ccccc3[nH]2)CC(C)(C)C1 (stereo not drawn)
EC50 [1]: > 195 µM (not active)

CCn1c(SCC(=O)c2cc(C)ccc2C)nc2cc(S(=O)(=O)N3CCOCC3)ccc21
EC50 (cells [8]): > 350 µM (not active) | EC50 (cells [9]): > 350 µM (not active)

CC(C)(C)c1ccc(C(=O)NC(=S)N2CCCC2)cc1
EC50 [1]: > 195 µM (not active)

COc1cc(OC)c2c(c1)OCC1CON(C)C21 (stereo not drawn)
EC50 [1]: > 195 µM (not active)

CCOC(=O)c1cnn(-c2ccccc2)c1-n1cccc1
EC50 [1]: > 195 µM (not active)

Cn1ccnc1SCC(=O)Nc1ccc2c(c1)OC(F)(F)O2
EC50 [4]: > 112 µM (not active) | EC50 [5]: > 112 µM (not active)

CC(C)OCCCNCC(O)c1ccccc1 (stereo not drawn)
EC50 [4]: > 112 µM (not active) | EC50 [5]: > 112 µM (not active)

O=S(=O)(c1ccc(F)cc1)N(Cc1ccco1)Cc1cc2ccccc2nc1O
EC50 [4]: > 112 µM (not active) | EC50 [5]: > 112 µM (not active)

COC(=O)c1ccc(C(C(=O)NCc2ccccc2)N(Cc2ccco2)C(=O)c2cnccn2)cc1 (stereo not drawn)
EC50 (cells [8]): > 350 µM (not active) | EC50 (cells [9]): > 350 µM (not active)

CCc1nn2c(=O)c(S(=O)(=O)Nc3cccc(F)c3)c(C)nc2s1
EC50 [1]: > 195 µM (not active)

COc1cccc(/C=N/NC(=O)c2cnccn2)c1
EC50 [1]: > 195 µM (not active)

O=C(N/N=C/c1cc2cc3c(cc2nc1Cl)OCO3)c1ccncc1
EC50 [4]: > 112 µM (not active) | EC50 (cells [8]): > 350 µM (not active) | EC50 (cells [9]): > 350 µM (not active) | EC50 [5]: > 112 µM (not active)

O=[N+]([O-])c1ccc(N2CCCC(C(F)(F)F)C2)c2ccncc12 (stereo not drawn)
EC50 [10]: > 120 µM (not active) | EC50 [11]: > 120 µM (not active) | EC50 (Protein RecA): 10.8 µM (active) | AC50 [14]: > 380 µM (inactive) | EC50 [12]: > 120 µM (not active)

CC(C)c1ccc(-c2c(C#N)c(N)nc3c2CCCCC3)cc1
EC50 [10]: > 120 µM (not active) | EC50 [11]: 41.9 µM (active) | EC50 (cells [8]): > 350 µM (not active) | EC50 (cells [9]): > 350 µM (not active) | EC50 [12]: > 120 µM (not active)

COc1ccc(/C=N/NC(=S)Nc2cc(S(=O)(=O)N3CCOCC3)ccc2N2CCOCC2)cc1O
EC50 (cells [8]): > 350 µM (not active) | EC50 (cells [9]): > 350 µM (not active)

O=S(=O)(c1ccccc1)N1CN2CCN(C2)C1
EC50 [1]: > 195 µM (not active)

CCCn1c2ccccc2c2cnn(CC(=O)NC3CCCC(C)C3C)c(=O)c21 (stereo not drawn)
EC50 (cells [8]): > 350 µM (not active) | EC50 (cells [9]): > 350 µM (not active)

CCOC(=O)Cc1ccc2sc(-c3ccccc3)nc2c1
EC50 [4]: 1.54 µM (active) | EC50 [5]: 2.68 µM (active)
